Reference: ChEMBL document CHEMBL5537202, “Perspectives on Nuclear Magnetic Resonance Spectroscopy in Drug Discovery Research” (J Med Chem, 2024)
pIC50, pKd, pKi: −log10 of the molar value. Each block holds one molecule with its values, some of them ahead of it. Where a SMILES comes first, the peptide text is derived from it. Bridges are numbered along the chain shown (N, C = ends). [ ]: non-standard residue; d: D form. Trp(1-CH2COOH) = N[C@@H](Cc1cn(CC(=O)O)c2ccccc12)C(=O)O; Hyp = O=C(O)[C@@H]1C[C@@H](O)CN1; NMeNle = CCCC[C@H](NC)C(=O)O; NMeA = CN[C@@H](C)C(=O)O; Dab = NCC[C@H](N)C(=O)O; Dap = NC[C@H](N)C(=O)O; Sar = CNCC(=O)O

What was measured:
[1] = Binding affinity to human recombinant Hsp90 expressed in Escherichia coli BL21 (DE3) cells assessed as dissociation constant
[2] = Binding affinity to Hsp90 (unknown origin) expressed in Escherichia coli BL21 (DE3) cells assessed as inhibition constant by NMR STD analysis; parameters: species or system Homo sapiens
[3] = target: Stimulator of interferon genes protein (Homo sapiens, UniProt Q86WV6); assay: Binding affinity to N-terminal His-tagged wild type human STING CTD ([…]) expressed in Escherichia coli BL21 (DE3) cells assessed as dissociation constant by NMR analysis
[4] = Oral bioavailability in Beagle dog at 2 mg/kg; assay type: ADME, organism-based, Canis lupus familiaris; conditions: in vivo
[5] = Oral bioavailability in rat at 2 mg/kg by LC-MS/MS analysis; assay type: ADME, organism-based; conditions: in vivo
[6] = Oral bioavailability in monkey at 5 mg/kg; assay type: ADME, organism-based, Macaca mulatta; conditions: rhesus monkey, in vivo
[7] = Oral bioavailability in mouse at 2 mg/kg; assay type: ADME, organism-based; conditions: in vivo
[8] = Binding affinity to Hsp90 (unknown origin) assessed as dissociation constant; parameters: species or system Homo sapiens
[9] = target: T1, Programmed cell death protein 1/Programmed cell death 1 ligand 1 (Homo sapiens, UniProt Q15116+Q9NZQ7); assay: Inhibition of PD-1/PD-L1 (unknown origin) protein-protein interaction incubated for 1 hr by HTRF assay; assay type: protein-complex assay
[10] = target: T1, Programmed cell death protein 1/Programmed cell death 1 ligand 1; assay: Inhibition of PD-1/PD-L1 (unknown origin) interaction expressed in human HEK293T cells by HTRF analysis; assay type: cell-based
[11] = target: T1, Programmed cell death protein 1/Programmed cell death 1 ligand 1; assay: Inhibition of PD-1/PD-L1 (unknown origin) protein-protein interaction expressed in HEK293 cells by HTRF method; assay type: cell-based
[12] = Binding affinity to human Hsp90 expressed in Escherichia coli BL21 (DE3) cells assessed as inhibition constant

T1 sequence (Q15116 whole entry): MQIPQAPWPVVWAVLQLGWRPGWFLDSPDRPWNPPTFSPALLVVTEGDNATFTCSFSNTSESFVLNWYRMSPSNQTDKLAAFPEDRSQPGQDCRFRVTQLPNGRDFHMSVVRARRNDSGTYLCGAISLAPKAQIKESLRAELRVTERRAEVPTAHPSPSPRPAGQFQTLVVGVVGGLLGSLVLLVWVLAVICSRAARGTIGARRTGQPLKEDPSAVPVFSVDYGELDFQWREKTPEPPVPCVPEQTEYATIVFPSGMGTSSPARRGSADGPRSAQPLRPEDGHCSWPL
T1 sequence (Q9NZQ7 whole entry): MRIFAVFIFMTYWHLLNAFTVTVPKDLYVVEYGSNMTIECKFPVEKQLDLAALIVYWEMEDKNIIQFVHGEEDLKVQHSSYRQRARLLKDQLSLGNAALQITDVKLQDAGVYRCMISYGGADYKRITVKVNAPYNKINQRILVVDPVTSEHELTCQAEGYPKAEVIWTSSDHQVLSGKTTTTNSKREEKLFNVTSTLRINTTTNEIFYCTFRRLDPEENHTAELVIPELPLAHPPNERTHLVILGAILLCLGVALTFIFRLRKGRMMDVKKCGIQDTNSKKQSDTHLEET
Chain of Stimulator of interferon genes protein (Q86WV6 whole entry): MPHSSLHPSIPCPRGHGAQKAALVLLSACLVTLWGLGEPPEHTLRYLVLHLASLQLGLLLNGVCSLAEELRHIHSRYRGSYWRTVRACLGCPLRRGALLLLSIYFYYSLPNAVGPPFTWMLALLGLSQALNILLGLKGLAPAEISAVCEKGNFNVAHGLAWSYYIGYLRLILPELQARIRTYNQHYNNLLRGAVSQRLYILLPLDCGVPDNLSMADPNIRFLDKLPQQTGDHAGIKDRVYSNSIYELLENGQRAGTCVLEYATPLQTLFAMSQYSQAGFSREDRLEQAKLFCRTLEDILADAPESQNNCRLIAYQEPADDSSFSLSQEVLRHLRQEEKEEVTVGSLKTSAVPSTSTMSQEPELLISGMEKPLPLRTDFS

SMILES: O=C(O)c1ccc(-c2ccc(F)cc2)cc1
pKd [1]: 3.52

SMILES: O=C(NS(=O)(=O)c1ccc(NCCSc2ccccc2)c([N+](=O)[O-])c1)c1ccc(-c2ccc(F)cc2)cc1
pKi [2]: 7.44

pKd [3]: 4.74
SMILES: COc1cc2cc(C(=O)CCC(=O)O)sc2cc1OC

SMILES: Oc1cccc2c1CCCC2
pKd [1]: 2.37

SMILES: O=C(O)c1ccc(-c2ccc(F)cc2)cc1/C=C/c1cccc(-c2ccccc2)c1
pKi [2]: 5.85

bioavailability [4]: 29.7%
bioavailability [5]: 29.7%
bioavailability [6]: 8%
bioavailability [7]: 29.7%
SMILES: COc1cccc(Nc2ncnn3ccc(CN4CC[C@@H](N)[C@@H](O)C4)c23)c1

pKd [8]: 3.75
SMILES: Cc1cccc(C2c3[nH]c4ccccc4c3CC3C(=O)N(c4ccccc4C(=O)O)C(=O)N32)c1 (stereo not given)

SMILES: Oc1ccc(-c2ccccc2)cc1
pKd [1]: 2.22

SMILES: CCCC[C@H]1C(=O)N(C)[C@@H](CCCC)C(=O)N[C@@H](CCCNC(=N)N)C(=O)N[C@H](C(=O)NCC(N)=O)CSCC(=O)N[C@@H](Cc2ccccc2)C(=O)N(C)[C@@H](C)C(=O)N[C@@H](CC(N)=O)C(=O)N2CCC[C@H]2C(=O)N[C@@H](Cc2c[nH]cn2)C(=O)N[C@@H](CC(C)C)C(=O)N(C)CC(=O)N[C@@H](Cc2c[nH]c3ccccc23)C(=O)N[C@@H](CO)C(=O)N[C@@H](Cc2c[nH]c3ccccc23)C(=O)N1C ({CH2CO}-F[NMeA]NPHL[Sar]WSW[NMeNle][NMeNle]RCG-NH2; thioether N-14)
pIC50 [9]: 8.05
pIC50 [10]: 7.22

SMILES: CCCC[C@H]1C(=O)N(C)[C@@H](CCCC)C(=O)N[C@@H](CC(C)C)C(=O)N[C@H](C(=O)NCC(N)=O)CSCC(=O)N[C@@H](Cc2ccc(O)cc2)C(=O)N(C)[C@@H](C)C(=O)N[C@@H](CC(N)=O)C(=O)N2CCC[C@H]2C(=O)N[C@@H](CN)C(=O)N[C@@H](CC(C)C)C(=O)N2C[C@H](O)C[C@H]2C(=O)N[C@@H](Cc2c[nH]c3ccccc23)C(=O)N[C@@H](CCN)C(=O)N[C@@H](Cc2cn(CC(=O)O)c3ccccc23)C(=O)N1C ({CH2CO}-Y[NMeA]NP[Dap]L[Hyp]W[Dab][Trp(1-CH2COOH)][NMeNle][NMeNle]LCG-NH2; thioether N-14)
pIC50 [11]: 9.57

SMILES: CN(C)CC[C@H](CSc1ccccc1)Nc1ccc(S(=O)(=O)NC(=O)c2ccc(N3CCN(Cc4ccccc4-c4ccc(Cl)cc4)CC3)cc2)cc1[N+](=O)[O-] [ABT 737]
pKi [12]: > 9.00
